Tests used:
[1] = system: fungal growth; assay: Biocidal function: fungal growth on brushed bread slices; type: cell-based, fungi; details: French bread slices brushed on all sides, 14 days, dark, 18-20° C.
From the text: In this example the following solutions/materials were used: • 1. Deionized water • 2. Solution CuCl2.2H2O in deionized water, 571 ppm Cu • 3. Solution CuCl2.2H2O in deionized water, 1286 ppm Cu • 4. Cu containing sol of example 5 in Table 7a, 571 ppm Cu • 5. Cu containing sol of example 6 in Table 7a, 1286 ppm Cu
Slices of French bread from a local baker were used as substrates for fungal growth. The bread slices were as brushed on all sides with solutions 1-5. The bread slices on dinner plates were put in plastic bags (one slice on a plate to a bag), which were in a dark, closed room where the temperature varied between 18 and 20° C. over the day. After 14 days, the untreated bread slice was severely befouled and the slice seemed to be completely invaded by fungi.

[2] = 20° C.; cited from earlier work

For O.O.[Cl-].[Cl-].[Cu+2] [Cu solution containing 1286 ppm Cu, CuCl2.2H2O], the “Fungal growth on treated bread slice” value [1] was “Only little fungal growth”.
For Cd(OH)2, the Aqueous solubility [2] is listed as 18 µM.
For Fe(OH)3, the Aqueous solubility [2] is given as 0.0002 µM.
In the case of Cu(OH)2, the Aqueous solubility [2] is given as 0.17 µM.
For Gd(OH)3, the Aqueous solubility [2] is listed as 0.52 µM.
For Pb(OH)2, the Aqueous solubility [2] is given as 6.7 µM.
For Fe(OH)2, the Aqueous solubility [2] is listed as 5.8 µM.
